Test results: ChEMBL document CHEMBL1201862, “PubChem BioAssay data set” (2004)
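Following 48 hours of exposure in 96-well plates, responses at five concentrations were used to interpolate endpoints linearly. Abbreviation: GI50, concentration required for 50% inhibition of growth.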 Active and inactive are the calls of the source. No stated cut-off is given here; in the data, active = GI50 up to about 1.1 µM and inactive = higher.

Tests used:
Experiment in all cases: NCI anticancer screen, dose series, 48 h
NCI-H23 = system: NCI-H23
KM12 = system: KM12
SNB-75 = system: SNB-75
OVCAR-5 = system: OVCAR-5
SK-OV-3 = system: SK-OV-3
NCI-H522 = system: NCI-H522
HT-29 = system: HT-29
COLO 205 = system: COLO 205
HOP-62 = system: HOP-62
SF-295 = system: SF-295
TK-10 = system: TK-10
UO-31 = system: UO-31
Malme-3M = system: Malme-3M
MDA-MB-231 = system: MDA-MB-231
Hs-578T = system: Hs-578T
A549 = system: A549
T47D = system: T47D
EKVX = system: EKVX
786-0 = system: 786-0
MOLT-4 = system: MOLT-4
PC-3 = system: PC-3
MCF7 = system: MCF7
UACC-257 = system: UACC-257
HCC 2998 = system: HCC 2998
UACC-62 = system: UACC-62
HCT-116 = system: HCT-116
DU-145 = system: DU-145
SNB-19 = system: SNB-19
SK-MEL-2 = system: SK-MEL-2
OVCAR-3 = system: OVCAR-3
OVCAR-4 = system: OVCAR-4
RPMI-8226 = system: RPMI-8226
U-251 = system: U-251
NCI-H460 = system: NCI-H460
IGROV-1 = system: IGROV-1
ACHN = system: ACHN
OVCAR-8 = system: OVCAR-8
RXF 393 = system: RXF 393
SW-620 = system: SW-620
NCI/ADR-RES = system: NCI/ADR-RES
SK-MEL-5 = system: SK-MEL-5
CAKI-1 = system: CAKI-1
M14 = system: M14
HCT-15 = system: HCT-15
SK-MEL-28 = system: SK-MEL-28
A498 = system: A498
K562 = system: K562
BT-549 = system: BT-549
MDA-N = system: MDA-N
SF-268 = system: SF-268
HOP-92 = system: HOP-92
MDA-MB-435 = system: MDA-MB-435
SF-539 = system: SF-539
SN12C = system: SN12C
CCRF-CEM = system: CCRF-CEM
NCI-H226 = system: NCI-H226
HL-60 = system: HL-60
SR = system: SR

## C[C@@H]1OC(=O)C[C@H]2CC(=O)N(CCC3CN(C(=O)c4ccccc4)c4ccccc43)C[C@@H]21 (stereo partly specified)
NCI-H23
  GI50: > 100 µM (inactive)
KM12
  GI50: > 100 µM (inactive)
SNB-75
  GI50: > 100 µM (inactive)
OVCAR-5
  GI50: > 100 µM (inactive)
SK-OV-3
  GI50: > 100 µM (inactive)
NCI-H522
  GI50: > 100 µM (inactive)
HT-29
  GI50: > 100 µM (inactive)
COLO 205
  GI50: > 100 µM (inactive)
HOP-62
  GI50: > 100 µM (inactive)
SF-295
  GI50: > 100 µM (inactive)
TK-10
  GI50: > 100 µM (inactive)
UO-31
  GI50: > 100 µM (inactive)
Malme-3M
  GI50: > 100 µM (inactive)
MDA-MB-231
  GI50: > 100 µM (inactive)
Hs-578T
  GI50: > 100 µM (inactive)
A549
  GI50: > 100 µM (inactive)
T47D
  GI50: > 100 µM (inactive)
EKVX
  GI50: > 100 µM (inactive)
786-0
  GI50: > 100 µM (inactive)
MOLT-4
  GI50: > 100 µM (inactive)
PC-3
  GI50: > 100 µM (inactive)
MCF7
  GI50: > 100 µM (inactive)
UACC-257
  GI50: > 100 µM (inactive)
HCC 2998
  GI50: > 100 µM (inactive)
UACC-62
  GI50: > 100 µM (inactive)
HCT-116
  GI50: > 100 µM (inactive)
DU-145
  GI50: > 100 µM (inactive)
SNB-19
  GI50: > 100 µM (inactive)
SK-MEL-2
  GI50: > 100 µM (inactive)
OVCAR-3
  GI50: > 100 µM (inactive)
OVCAR-4
  GI50: > 100 µM (inactive)
RPMI-8226
  GI50: > 100 µM (inactive)
U-251
  GI50: > 100 µM (inactive)
NCI-H460
  GI50: > 100 µM (inactive)
IGROV-1
  GI50: > 100 µM (inactive)
ACHN
  GI50: > 100 µM (inactive)
OVCAR-8
  GI50: > 100 µM (inactive)
RXF 393
  GI50: > 100 µM (inactive)
SW-620
  GI50: > 100 µM (inactive)
NCI/ADR-RES
  GI50: > 100 µM (inactive)
SK-MEL-5
  GI50: > 100 µM (inactive)
CAKI-1
  GI50: > 100 µM (inactive)
M14
  GI50: > 100 µM (inactive)
HCT-15
  GI50: > 100 µM
SK-MEL-28
  GI50: > 100 µM (inactive)
A498
  GI50: > 100 µM (inactive)
K562
  GI50: > 100 µM (inactive)
BT-549
  GI50: > 100 µM (inactive)
MDA-N
  GI50: > 100 µM (inactive)
SF-268
  GI50: > 100 µM (inactive)
HOP-92
  GI50: > 100 µM (inactive)
MDA-MB-435
  GI50: > 100 µM (inactive)

## Cc1ccc2c(c1C)CC1(Cc3c(ccc4c3CCC4)C1=O)C2=O (stereo unspecified)
NCI-H23
  GI50: > 100 µM (inactive)
KM12
  GI50: > 100 µM (inactive)
SNB-75
  GI50: 51.6 µM (inactive)
OVCAR-5
  GI50: > 100 µM (inactive)
SF-539
  GI50: 0.652 µM (active)
SK-OV-3
  GI50: > 100 µM (inactive)
NCI-H522
  GI50: > 100 µM (inactive)
HT-29
  GI50: > 100 µM (inactive)
COLO 205
  GI50: > 100 µM (inactive)
SF-295
  GI50: > 100 µM (inactive)
TK-10
  GI50: > 100 µM (inactive)
UO-31
  GI50: > 100 µM (inactive)
Malme-3M
  GI50: > 100 µM (inactive)
MDA-MB-231
  GI50: > 100 µM (inactive)
Hs-578T
  GI50: > 100 µM (inactive)
A549
  GI50: > 100 µM (inactive)
T47D
  GI50: > 100 µM (inactive)
SN12C
  GI50: > 100 µM (inactive)
EKVX
  GI50: > 100 µM (inactive)
786-0
  GI50: > 100 µM (inactive)
MOLT-4
  GI50: > 100 µM (inactive)
PC-3
  GI50: 62.2 µM (inactive)
MCF7
  GI50: 21.9 µM (inactive)
UACC-257
  GI50: > 100 µM (inactive)
CCRF-CEM
  GI50: > 100 µM (inactive)
HCC 2998
  GI50: > 100 µM (inactive)
UACC-62
  GI50: > 100 µM (inactive)
HCT-116
  GI50: > 100 µM (inactive)
DU-145
  GI50: > 100 µM (inactive)
SNB-19
  GI50: > 100 µM (inactive)
SK-MEL-2
  GI50: > 100 µM (inactive)
OVCAR-3
  GI50: 65.9 µM (inactive)
OVCAR-4
  GI50: > 100 µM (inactive)
RPMI-8226
  GI50: > 100 µM (inactive)
NCI-H226
  GI50: > 100 µM (inactive)
U-251
  GI50: > 100 µM (inactive)
NCI-H460
  GI50: > 100 µM (inactive)
IGROV-1
  GI50: > 100 µM (inactive)
ACHN
  GI50: > 100 µM (inactive)
OVCAR-8
  GI50: > 100 µM (inactive)
RXF 393
  GI50: > 100 µM (inactive)
SW-620
  GI50: > 100 µM (inactive)
NCI/ADR-RES
  GI50: > 100 µM (inactive)
SK-MEL-5
  GI50: > 100 µM (inactive)
CAKI-1
  GI50: > 100 µM (inactive)
M14
  GI50: 52.4 µM (inactive)
HCT-15
  GI50: > 100 µM
HL-60
  GI50: > 100 µM (inactive)
SK-MEL-28
  GI50: > 100 µM (inactive)
A498
  GI50: > 100 µM (inactive)
K562
  GI50: > 100 µM (inactive)
BT-549
  GI50: > 100 µM (inactive)
MDA-N
  GI50: > 100 µM (inactive)
SF-268
  GI50: > 100 µM (inactive)
HOP-92
  GI50: > 100 µM (inactive)
MDA-MB-435
  GI50: 46.3 µM (inactive)

## COc1ccc(N2C(=O)C3c4[nH]c5ccccc5c4C4CCC(C(C)(C)C)CC4C3C2=O)c(C)c1 (stereo unspecified)
NCI-H23
  GI50: > 100 µM (inactive)
KM12
  GI50: > 100 µM (inactive)
SNB-75
  GI50: > 100 µM (inactive)
SF-539
  GI50: > 100 µM (inactive)
SK-OV-3
  GI50: > 100 µM (inactive)
NCI-H522
  GI50: > 100 µM (inactive)
HT-29
  GI50: > 100 µM (inactive)
COLO 205
  GI50: > 100 µM (inactive)
HOP-62
  GI50: > 100 µM (inactive)
SF-295
  GI50: > 100 µM (inactive)
TK-10
  GI50: > 100 µM (inactive)
UO-31
  GI50: > 100 µM (inactive)
MDA-MB-231
  GI50: > 100 µM (inactive)
Hs-578T
  GI50: 51.3 µM (inactive)
A549
  GI50: > 100 µM (inactive)
T47D
  GI50: > 100 µM (inactive)
SN12C
  GI50: > 100 µM (inactive)
EKVX
  GI50: > 100 µM (inactive)
786-0
  GI50: > 100 µM (inactive)
MOLT-4
  GI50: > 100 µM (inactive)
PC-3
  GI50: > 100 µM (inactive)
MCF7
  GI50: > 100 µM (inactive)
UACC-257
  GI50: > 100 µM (inactive)
CCRF-CEM
  GI50: > 100 µM (inactive)
HCC 2998
  GI50: > 100 µM (inactive)
UACC-62
  GI50: > 100 µM (inactive)
HCT-116
  GI50: > 100 µM (inactive)
DU-145
  GI50: > 100 µM (inactive)
SNB-19
  GI50: > 100 µM (inactive)
SR
  GI50: > 100 µM (inactive)
OVCAR-3
  GI50: > 100 µM (inactive)
OVCAR-4
  GI50: > 100 µM (inactive)
RPMI-8226
  GI50: > 100 µM (inactive)
NCI-H226
  GI50: > 100 µM (inactive)
U-251
  GI50: > 100 µM (inactive)
NCI-H460
  GI50: > 100 µM (inactive)
IGROV-1
  GI50: > 100 µM (inactive)
ACHN
  GI50: > 100 µM (inactive)
OVCAR-8
  GI50: > 100 µM (inactive)
RXF 393
  GI50: > 100 µM (inactive)
SW-620
  GI50: > 100 µM (inactive)
NCI/ADR-RES
  GI50: > 100 µM (inactive)
SK-MEL-5
  GI50: > 100 µM (inactive)
CAKI-1
  GI50: > 100 µM (inactive)
M14
  GI50: > 100 µM (inactive)
HCT-15
  GI50: > 100 µM
HL-60
  GI50: > 100 µM (inactive)
SK-MEL-28
  GI50: > 100 µM (inactive)
K562
  GI50: > 100 µM (inactive)
BT-549
  GI50: > 100 µM (inactive)
MDA-N
  GI50: > 100 µM (inactive)
SF-268
  GI50: > 100 µM (inactive)
MDA-MB-435
  GI50: > 100 µM (inactive)
